# Where “and” joins values, the source holds several entries; their conditions need not be identical. Equal values may be shown once. Read-outs that look alike come from different tables or passages of the source.
# What was measured:
# [1] = tested on: Staphylococcus aureus 3055; test: MIC, standard agar-dilution test (Table XI); assay type: cell-based; settings: aerobic, S. aureus 3055, sodium salt form
# [2] = tested on: Group D Streptococcus 282; test: MIC, standard agar-dilution test (Table XI); assay type: cell-based; settings: aerobic, sodium salt form
# [3] = tested on: Streptococcus pyogenes C203; test: MIC, standard agar-dilution test (Table XI); assay type: cell-based; settings: aerobic, S. pyogenes C203, sodium salt form
# [4] = tested on: Streptococcus pneumoniae Park I; test: MIC, standard agar-dilution test (Table XI); assay type: cell-based; settings: aerobic, S. pneumoniae Park I, sodium salt form
# [5] = tested on: Viridans Streptococcus 9943; test: MIC, standard agar-dilution test (Table XI); assay type: cell-based; settings: aerobic, sodium salt form
# [6] = tested on: Neisseria gonorrhoeae 111076-4; test: MIC, standard agar-dilution test (Table XI); assay type: cell-based; settings: aerobic, N. gonorrhoeae 111076-4, sodium salt form
# [7] = tested on: Staphylococcus aureus 3055; test: MIC, standard broth-dilution test (Table XII); assay type: cell-based; settings: aerobic, S. aureus 3055
# [8] = tested on: Group D Streptococcus 282; test: MIC, standard broth-dilution test (Table XII); assay type: cell-based; settings: aerobic
# [9] = tested on: Streptococcus pyogenes C203; test: MIC, standard broth-dilution test (Table XII); assay type: cell-based; settings: aerobic, S. pyogenes C203
# [10] = tested on: Streptococcus pneumoniae Park I; test: MIC, standard broth-dilution test (Table XII); assay type: cell-based; settings: aerobic, S. pneumoniae Park I
# [11] = tested on: Viridans Streptococcus 9943; test: MIC, standard broth-dilution test (Table XII); assay type: cell-based; settings: aerobic
# Staphylococcus aureus [12] = test: MIC against clinical isolates, ICS agar-dilution (Table XIII); assay type: cell-based; settings: 10 clinical isolates, bracket = number of isolates with this MIC or range
# [13] = tested on: Staphylococcus epidermidis; test: as above; assay type: cell-based; settings: 12 clinical isolates, bracket = number of isolates with this MIC or range
# Actinomyces israelii = test: MIC against anaerobic bacteria, standard agar-dilution (Table XIV); assay type: cell-based; settings: anaerobe
# Clostridium septicum = test: as above; assay type: cell-based; settings: anaerobe
# Eubacterium aerofaciens = test: as above; assay type: cell-based; settings: anaerobe
# [14] = tested on: Peptococcus asaccharolyticus; test: as above; assay type: cell-based; settings: anaerobe
# Peptococcus prevoti = test: as above; assay type: cell-based; settings: anaerobe
# [15] = tested on: Peptostreptococcus anaerobius; test: as above; assay type: cell-based; settings: anaerobe
# [16] = tested on: Peptostreptococcus intermedius; test: as above; assay type: cell-based; settings: anaerobe
# Propionibacterium acnes = test: as above; assay type: cell-based; settings: anaerobe
# Bacteroides fragilis = test: as above; assay type: cell-based; settings: anaerobe
# Fusobacterium symbiosum = test: as above; assay type: cell-based; settings: anaerobe
# [17] = tested on: Fusobacterium necrophorum; test: as above; assay type: cell-based; settings: anaerobe
# Staphylococcus aureus [18] = test: MIC, agar dilution (Table XV); assay type: cell-based
# Source text: (§1) ^1 MIC = minimum inhibitory concentration (μg/ml), agar dilution
# Streptococcus pneumoniae [19] = test: MIC, agar dilution (Table XV); assay type: cell-based
# Source text: as §1
# Streptococcus pyogenes [20] = test: MIC, agar dilution (Table XV); assay type: cell-based
# Source text: as §1
# Staphylococcus aureus [21] = test: Experimental bacterial infection in mice, ED50; assay type: in vivo; settings: S. aureus infection, two doses, subcutaneous administration
# Protocol: (§2) When two doses of test compound were administered to mice in illustrative infections, the activity observed as measured as an ED50 value [effective dose in mg/kg to protect fifty percent of the test animals: See Warren Wick, et al., J. Bacteriol, 81, 233-235 (1961)].
# Streptococcus pneumoniae [22] = test: Experimental bacterial infection in mice, ED50; assay type: in vivo; settings: S. pneumoniae infection, two doses, subcutaneous administration
# Protocol: as §2
# Streptococcus pyogenes [23] = test: Experimental bacterial infection in mice, ED50; assay type: in vivo; settings: S. pyogenes infection, two doses
# Protocol: as §2
# [24] = tested on: Streptococcus faecalis (Guze); test: In vitro susceptibility (MIC) of the S. faecalis Guze strain; assay type: cell-based
# Source text: ^1 In vitro susceptibility of the S. faecalis Guze strain
# [25] = Electrometric titration in 66% aqueous dimethylformamide; assay type: physicochemical; settings: 66% DMF, Na salt forms; factors: two determinations
# Clostridium perfringens = settings: anaerobe, agar-dilution
# [26] = Mouse
# [27] = Rat, IV
# Micrococcus luteus = test: Paper-disc agar-diffusion bioassay; settings: individual factors, Na salts
# [28] = tested on: Streptococcus faecalis (Guze); test: Streptococcus faecalis descending rat pyelonephritis test; settings: 1.0 mg/kg x 7 subcutaneous; for Percent of Rats Cured: cure = kidney counts less than 10^2 per g; for Percent of Rats with a 4-Log Titer Decrease: once daily, kidney titer vs infected controls
# Viridans Streptococcus = test: MIC against clinical isolates, ICS agar-dilution (Table XIII); assay type: cell-based; settings: 2 clinical isolates, bracket = number of isolates with this MIC or range
smiles,measurement,setting,value
CCC(C)CCCCCCC(=O)N[C@@H](Cc1c[nH]c2ccccc12)C(=O)NC(CC(N)=O)C(=O)N[C@@H](CC(=O)O)C(=O)N[C@@H]1C(=O)NCC(=O)N[C@@H](CCCN)C(=O)N[C@@H](CC(=O)O)C(=O)N[C@H](C)C(=O)N[C@@H](CC(=O)O)C(=O)NCC(=O)N[C@H](CO)C(=O)N[C@@H]([C@H](C)CC(=O)O)C(=O)N[C@@H](CC(=O)c2ccccc2N)C(=O)O[C@@H]1C (stereo in doubt) [Factor C1],MIC,[1],0.5 µg/mL
same,MIC,[2],1.0 µg/mL
same,MIC,[3],0.13 µg/mL
same,MIC,[4],0.13 µg/mL
same,MIC,[5],0.5 µg/mL
same,MIC,[6],16.0 µg/mL
same,MIC,[7],1.0 µg/mL
same,MIC,[8],2.0 µg/mL
same,MIC,[9],0.5 µg/mL
same,MIC,[10],2.0 µg/mL
same,MIC,[11],32.0 µg/mL
same,Minimum Inhibitory Concentration,Staphylococcus aureus [12],0.5 µg/mL
same,Minimum Inhibitory Concentration,[13],0.13 to 0.25 µg/mL
same,MIC,Actinomyces israelii,4 µg/mL
same,MIC,Clostridium septicum,4 µg/mL
same,MIC,Eubacterium aerofaciens,16 µg/mL
same,MIC,[14],4 µg/mL
same,MIC,Peptococcus prevoti,2 µg/mL
same,MIC,[15],2 µg/mL
same,MIC,[16],4 µg/mL
same,MIC,Propionibacterium acnes,8 µg/mL
same,MIC,Bacteroides fragilis,> 128 µg/mL
same,MIC,Fusobacterium symbiosum,> 128 µg/mL
same,MIC,[17],64 µg/mL
same,MIC,Staphylococcus aureus [18],0.5 µg/mL
same,MIC,Streptococcus pneumoniae [19],0.13 µg/mL
same,MIC,Streptococcus pyogenes [20],0.13 µg/mL
same,ED50,Staphylococcus aureus [21],0.22 mg/kg
same,ED50,Streptococcus pneumoniae [22],0.3 mg/kg
same,ED50,Streptococcus pyogenes [23]; oral administration,93 mg/kg
same,ED50,Streptococcus pyogenes [23]; subcutaneous administration,0.064 mg/kg
same,MIC,[24],1.0 µg/mL
same,pKa Values (first group),[25],5.7 and 5.9
same,MIC,Clostridium perfringens,16 µg/mL
same,LD50,[26]; IV,> 250 mg/kg
same,LD50,[26]; SC,> 365 mg/kg
same,LD50,[27],479 ± 32 mg/kg
same,Bioassay (Micrococcus luteus),Micrococcus luteus,1663 units/mg
same,Percent of Rats Cured,[28],50
same,Percent of Rats with a 4-Log Titer Decrease,[28],50
CCC(C)CCCCCCCCC(=O)NC(Cc1c[nH]c2ccccc12)C(=O)NC(CC(N)=O)C(=O)NC(CC(=O)O)C(=O)NC1C(=O)NCC(=O)NC(CCCN)C(=O)NC(CC(=O)O)C(=O)NC(C)C(=O)NC(CC(=O)O)C(=O)NCC(=O)NC(CO)C(=O)NC(C(C)CC(=O)O)C(=O)NC(CC(=O)c2ccccc2N)C(=O)OC1C (stereo not drawn) [Factor C3],MIC,[1],0.06 µg/mL
same,MIC,[2],0.13 µg/mL
same,MIC,[3],0.25 µg/mL
same,MIC,[4],0.13 µg/mL
same,MIC,[5],0.5 µg/mL
same,MIC,[6],4.0 µg/mL
same,MIC,[7],0.13 µg/mL
same,MIC,[8],0.13 µg/mL
same,MIC,[9],0.13 µg/mL
same,MIC,[10],.5 µg/mL
same,MIC,[11],32.0 µg/mL
same,Minimum Inhibitory Concentration,Staphylococcus aureus [12],0.06 to 0.12 µg/mL
same,Minimum Inhibitory Concentration,Viridans Streptococcus,0.5 µg/mL
same,MIC,Actinomyces israelii,1.0 µg/mL
same,MIC,Clostridium septicum,1.0 µg/mL
same,MIC,Eubacterium aerofaciens,4 µg/mL
same,MIC,[14],1.0 µg/mL
same,MIC,Peptococcus prevoti,< 0.5 µg/mL
same,MIC,[15],1.0 µg/mL
same,MIC,[16],< 0.5 µg/mL
same,MIC,Propionibacterium acnes,1.0 µg/mL
same,MIC,Bacteroides fragilis,> 128 µg/mL
same,MIC,Fusobacterium symbiosum,16 µg/mL
same,MIC,[17],32 µg/mL
same,MIC,Staphylococcus aureus [18],0.06 µg/mL
same,MIC,Streptococcus pneumoniae [19],0.03 µg/mL
same,MIC,Streptococcus pyogenes [20],0.06 µg/mL
same,ED50,Staphylococcus aureus [21],0.08 mg/kg
same,ED50,Streptococcus pneumoniae [22],0.09 mg/kg
same,ED50,Streptococcus pyogenes [23]; oral administration,66 mg/kg
same,ED50,Streptococcus pyogenes [23]; subcutaneous administration,0.032 mg/kg
same,MIC,[24],0.13 µg/mL
same,pKa Values (first group),[25],5.73 and 5.75
same,pKa Values (second group),[25],7.54 and 7.58
same,MIC,Clostridium perfringens,8 µg/mL
same,LD50,[26]; IV,< 50 mg/kg
same,LD50,[26]; SC,70 to 75 mg/kg
same,LD50,[27],< 160 mg/kg
same,Bioassay (Micrococcus luteus),Micrococcus luteus,803 units/mg
same,Percent of Rats Cured,[28],78
same,Percent of Rats with a 4-Log Titer Decrease,[28],78

# — patent USRE32333E, “A-21978 Antibiotics and process for their production” (priority 1985, dated 1987)
